Assay results reported in US20150322033A1, “ANTIBACTERIAL AGENT” (priority 2012, published 2015).
≈ marks a conversion by molar mass, not a printed value.

How the values were obtained:
GyrA(wt) + GyrB(wt) = molecular target: T1, GyrA(wt) + GyrB(wt) (Staphylococcus aureus, UniProt P20831); assay: DNA cleavage assay with GyrA(wt) and GyrB(wt); assay type: biochemical; details: for Ratio of cleaved DNA (%) / Ratio of substrate plasmid DNA (%): Table 18
T1 construct: made in house; host or cells: E. coli BL21(DE3)
Source text: The gene sequence encoding the wild-type GyrA of Staphylococcus aureus (henceforth also referred to as “GyrA(wt)”) shown as SEQ ID NO: 1 was cloned into the plasmid pMAL-c2 (produced by New England Biolabs) (the resultant is henceforth also referred to as “pMAL-c2-gyrA”).
The gene sequence encoding the wild-type GyrB of Staphylococcus aureus (henceforth also referred to as “GyrB(wt)”) shown as SEQ ID NO: 2 was cloned into the plasmid pMAL-c2 (produced by New England Biolabs) (the resultant is henceforth also referred to as “pMAL-c2-gyrB”).
(§1) E. coliBL21(DE3) (produced by Invitrogen) was transformed with pMAL-c2-gyrA mentioned above, with pMAL-c2-gyrB mentioned above, or with pMAL-c2-SAGAmut84 containing a mutant gyrA encoding the amino acid sequence of GyrA(wt) in which serine residue at the 84th position from the amino terminus is substituted with a leucine residue (see, Hiramatsu K., Igarashi M., Morimoto Y, Baba T., Umekita M., Akamatsu Y., Int. J. Antimicrob. Agents, 2012 June; 39(6), 478-85). To the culture medium of the resulting transformed Escherichia coli, 1 mM […] (produced by Wako Pure Chemical Industries) was added to induce expression of maltose-binding GyrA(wt), maltose-binding GyrB(wt), or maltose-binding mutant GyrA(S84L), and the bacterium was cultured overnight at 25° C. After completion of the culture, the cells were collected, and suspended in a buffer (20 mM Tris-HCl (pH 8.0), 200 mM sodium chloride, 1 mM ethylenediaminetetraacetic acid (EDTA), 1 mM dithiothreitol (DTT)), a protein extracting reagent (10× BugBuster (registered trademark), produced by Novagen) in a volume of 1/10 of the volume of the buffer, and 2.5 μL/10 mL of the buffer of Benzonase (registered trademark) nuclease (produced by Novagen) were added, the mixture was left standing at 25° C. for 30 minutes, and the cells were disrupted and lysed to obtain a disrupted cell suspension containing the maltose-binding GyrA(wt), maltose-binding GyrB(wt), or maltose-binding mutant GyrA(S84L).
(§2) Then, each disrupted cell suspension mentioned above was added to a column filled with an amylose resin covalently bound with maltose (produced by Novagen). A buffer (20 mM Tris-HCl (pH 8.0), 200 mM sodium chloride, 1 mM EDTA) containing 10 mM maltose was added to the column to elute the maltose-binding GyrA(wt), maltose-binding GyrB(wt), and maltose-binding mutant GyrA(S84L).
(§3) To each eluate, 4 units/1 mL of the eluate of protease (Factor Xa, produced by Amersham) was added, and the mixture was left standing at 25° C. for 3 hours and 30 minutes to cleave the maltose-binding proteins, GyrA(wt), GyrB(wt), and mutant GyrA(S84L) from the maltose-binding GyrA(wt), maltose-binding GyrB(wt), and maltose-binding mutant GyrA(S84L).
(§4) Then, GyrA(wt), GyrB(wt), and mutant GyrA(S84L) were concentrated by using an ultrafiltration unit (YM-50 Filter Unit, produced by Millipore).
(§5) The concentrated GyrA(wt), GyrB(wt), and mutant GyrA(S84L) were each suspended in a buffer (35 mM Tris-HCl (pH 7.5), 24 mM potassium chloride, 6 mM magnesium chloride, 1.8 mM spermidine, 0.36 mg/mL bovine serum albumin, 5 mM DTT, 50 volume % glycerol) at a concentration of 1 μg/μL for GyrA(wt), 2 μg/μL for GyrB(wt), or 1 μg/μL for mutant GyrA(S84L).
A substrate plasmid DNA, pTWV228 (0.4 μg, produced by Takara Bio), and levofloxacin (LVFX) or apigenin were added to a buffer (35 mM Tris-HCl (pH 7.5), 24 mM potassium chloride, 6 mM magnesium chloride, 1.8 mM spermidine, 0.36 mg/mL bovine serum albumin, 5 mM DTT), and 0.15 μL of the enzyme solution of GyrA(wt) and […] of the enzyme solution of GyrB(wt) were added to the mixture to prepare a reaction mixture in a total volume of 20
Levofloxacin was added at a final concentration of 0, 0.5, 1, 2, 4, 8, 16, or 32 μg/mL.
The aforementioned reaction solution was left standing at 25° C. for 30 minutes to allow the reaction. […]

GyrA(S84L) + GyrB(wt) = molecular target: T2, GyrA(S84L) + GyrB(wt) (Staphylococcus aureus, UniProt P20831, S84L); assay: DNA cleavage assay with mutant GyrA(S84L) and GyrB(wt); assay type: biochemical; details: IC50 (μg/mL) GyrA(S84L) + GyrB(wt), Example 9, Table 18
T2 construct: made in house; host or cells: E. coli BL21(DE3)
Source text: as §1, §2, §3, §4, §5
An assay was performed in the same manner as that of the cleavage of the plasmid DNA with GyrA(wt) and GyrB(wt) mentioned above, provided that 0.15 μL of an enzyme solution of mutant GyrA(S84L) and 0.2 μL of the enzyme solution of GyrB(wt) were added instead of […] of the enzyme solution of GyrA(wt) and 0.2 μL of the enzyme solution of GyrB(wt). In FIGS. 3 and 4, the symbols “S”, “L”, and “N” have the same meanings as those explained for FIGS. 1 and 2.
IC50 value of levofloxacin or apigenin was also calculated from the visualized images shown in FIGS. 3 and 4 in the same manner as that used for the calculation using the results shown in FIGS. 1 and 2.
The DNA cleavage assay was performed with M-246 in the same manner as that used in Example 4.

[1] = system: S. aureus FDA209P (ATCC 6538P); assay: microbe, parasite or virus in culture; assay type: cell-based, Staphylococcus aureus; details: Staphylococcus aureus; Example 8, Table 17; read-out: MIC FDA209P
In short: (§6)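 Overnight TSB cultures at 37 °C adjusted to A578 0.3, diluted 500-fold in CAMHB and mixed 1:1 with compound in CAMHB; static overnight incubation at 37 °C. MIC reported in mg/L; Mu50 NR-1 also tested in some runs.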

S. aureus Mu50 = assay: microbe, parasite or virus in culture; assay type: cell-based, Staphylococcus aureus; details: Staphylococcus aureus, MU50, read-out: MIC Mu50, Example 8, Table 17
In short: as §6

COc1ccc2c(=O)cc(-c3ccc(O)c(OC)c3)oc2c1 [M-246]
Ratio of cleaved DNA (%) (GyrA(wt) + GyrB(wt); 0.5 μg/mL): 18% | Ratio of substrate plasmid DNA (%) (GyrA(wt) + GyrB(wt); 0.5 μg/mL): 82% | Ratio of cleaved DNA (%) (GyrA(wt) + GyrB(wt); 1 μg/mL): 23% | Ratio of substrate plasmid DNA (%) (GyrA(wt) + GyrB(wt); 1 μg/mL): 77% | Ratio of cleaved DNA (%) (GyrA(wt) + GyrB(wt); 2 μg/mL): 29% | Ratio of substrate plasmid DNA (%) (GyrA(wt) + GyrB(wt); 2 μg/mL): 71% | Ratio of cleaved DNA (%) (GyrA(wt) + GyrB(wt); 4 μg/mL): 40% | Ratio of substrate plasmid DNA (%) (GyrA(wt) + GyrB(wt); 4 μg/mL): 60% | Ratio of cleaved DNA (%) (GyrA(wt) + GyrB(wt); 8 μg/mL): 47% | Ratio of substrate plasmid DNA (%) (GyrA(wt) + GyrB(wt); 8 μg/mL): 53% | Ratio of cleaved DNA (%) (GyrA(wt) + GyrB(wt); 16 μg/mL): 56% | Ratio of substrate plasmid DNA (%) (GyrA(wt) + GyrB(wt); 16 μg/mL): 44% | Ratio of cleaved DNA (%) (GyrA(wt) + GyrB(wt); 32 μg/mL): 67% | Ratio of substrate plasmid DNA (%) (GyrA(wt) + GyrB(wt); 32 μg/mL): 33% | IC50 (GyrA(wt) + GyrB(wt); IC50 (μg/mL) GyrA(wt) + GyrB(wt), Example 9, Table 18): 53.6 µM | IC50 (GyrA(S84L) + GyrB(wt)): 3.35 µM | MIC [1]: 128 µg/mL (≈ 429 µM) | MIC (S. aureus Mu50): 4 µg/mL (≈ 13.4 µM)
